Measured values reported in article PMC9180407, “Unraveling the Binding Mechanism of Alzheimer’s Drugs with Irisin: Spectroscopic, Calorimetric, and Computational Approaches” (International Journal of Molecular Sciences, 2022).
Like-named read-outs stand apart in the source and are kept apart here.

Target: T1, irisin (Homo sapiens, UniProt Q8NAU1)
T1 construct: gene FNDC5; irisin (secreted ectodomain cleaved from FNDC5), His tag with 3C site (pET15b-His-3C-irisin), tag cleavage not mentioned, E. coli C41-DE3, Ni-NTA purified
T1 sequence (Q8NAU1 80-191 limits assumed): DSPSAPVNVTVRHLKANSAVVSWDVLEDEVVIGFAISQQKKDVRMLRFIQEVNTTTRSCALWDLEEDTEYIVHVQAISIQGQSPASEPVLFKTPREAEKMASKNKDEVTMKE
Assay: isothermal titration calorimetry
Type: binding
Text: isothermal titration calorimetry on irisin

Compound | Kd (read-out: Ka1 (converted)) [µM] | Kd (read-out: Ka2 (converted)) [µM]
CNCCC(Oc1ccc(C(F)(F)F)cc1)c1ccccc1 (stereo not drawn) [fluoxetine] | 0.156 | 
COc1ccc2c3c1O[C@H]1C[C@@H](O)C=C[C@@]31CCN(C)C2 [galantamine] |  | 8.06
CC12CC3CC(C)(C1)CC(N)(C3)C2 [memantine] |  | 9.35
